Assay results published in patent US10689377B2 (Mirati Therapeutics, Inc., priority 2017, dated 2020).
pIC50: −log10 of the molar value.

Biological target: KRas G12C (Homo sapiens, UniProt P01116, G12C)
Assay: Cellular inhibition of KRas G12C measured by Phospho-ERK in NCI-H358 cells
Format: cell-based
Conditions: pERK(Thr202/Tyr204) normalized with GAPDH, NCI-H358 cells, 3 hours; read-out: IC50
Method in brief: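 NCI-H358 cells treated 3 h with compound (0.5% DMSO final), then fixed and methanol-permeabilised. In-cell immunofluorescence measured pERK(Thr202/Tyr204) normalised to GAPDH as percent of DMSO control. IC50 from a 4-parameter dose-response fit.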

KRas G12C, sequence (P01116 1-188 isoform P01116-2 G12C): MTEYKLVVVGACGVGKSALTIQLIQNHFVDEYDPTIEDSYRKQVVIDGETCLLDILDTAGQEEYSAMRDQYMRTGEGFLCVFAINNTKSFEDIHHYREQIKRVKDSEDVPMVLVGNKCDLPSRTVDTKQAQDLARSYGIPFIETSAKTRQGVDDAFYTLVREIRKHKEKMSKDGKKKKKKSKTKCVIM

Row | pIC50 | Compound
1 | 6.00 to 10.00 | C=CC(=O)N1CCN(c2nc(OC[C@@H]3C[C@@H](O)CN3C)nc3c2CCN(c2ccccc2C(F)(F)F)C3)CC1CC#N (stereo partly drawn) [Example 312, 2-[4-[2-[[(2S,4R)-4-hydroxy-1-methyl-pyrrolidin-2-yl]methoxy]-7-[2-(trifluoromethyl)phenyl]-6,8-dihydro-5H-pyrido[3,4-d]pyrimidin-4-yl]-1-prop-2-enoyl-piperazin-2-yl]acetonitrile]
2 | 6.00 to 10.00 | CN1CCC[C@H]1COc1nc2c(c(N3CCN(C(=O)C#CCO)[C@@H](CC#N)C3)n1)CCN(c1cccc3cccc(Cl)c13)C2 [Example 483, 2-[(2S)-4-[7-(8-chloro-1-naphthyl)-2-[[(2S)-1-methylpyrrolidin-2-yl]methoxy]-6,8-dihydro-5H-pyrido[3,4-d]pyrimidin-4-yl]-1-(4-hydroxybut-2-ynoyl)piperazin-2-yl]acetonitrile]
3 | 6.00 to 10.00 | C=CC(=O)N1C[C@H](C)N(c2nc(OC[C@@H]3CCCN3C)nc3c2CCN(c2cc(O)cc4ccccc24)C3)C[C@H]1C [Example 336, 1-[(2R,5S)-4-[7-(3-hydroxy-1-naphthyl)-2-[[(2S)-1-methylpyrrolidin-2-yl]methoxy]-6,8-dihydro-5H-pyrido[3,4-d]pyrimidin-4-yl]-2,5-dimethyl-piperazin-1-yl]prop-2-en-1-one]
4 | < 6.00 | C=CC(=O)N1CCN(c2nc(OC[C@@H]3CCCN3C)nc3c2CCN(c2cccc4ccccc24)C3)C[C@H]1C [Example 201, 1-((R)-2-methyl-4-(2-(((S)-1-methylpyrrolidin-2-yl)methoxy)-7-(naphthalen-1-yl)-5,6,7,8-tetrahydropyrido[3,4-d]pyrimidin-4-yl)piperazin-1-yl)prop-2-en-1-one]
5 | 6.00 to 10.00 | C=CC(=O)N1CCN(c2nc(OC[C@H]3CN(C)CCN3)nc3c2CCN(c2cccc4ccccc24)C3)CC1CC#N (stereo partly drawn) [Example 224, 2-(1-acryloyl-4-(2-(((R)-4-methylpiperazin-2-yl)methoxy)-7-(naphthalen-1-yl)-5,6,7,8-tetrahydropyrido[3,4-d]pyrimidin-4-yl)piperazin-2-yl)acetonitrile]
6 | < 6.00 | C=CC(=O)N1CCN(c2nc(OCCN(C)C)nc3c2CCN(c2cc(O)cc4ccccc24)C3C)CC1 (stereo not shown) [Example 47, 1-(4-(2-(2-(dimethylamino)ethoxy)-7-(3-hydroxynaphthalen-1-yl)-8-methyl-5,6,7,8-tetrahydropyrido[3,4-d]pyrimidin-4-yl)piperazin-1-yl)prop-2-en-1-one]
7 | < 6.00 | C=CC(=O)N1CCN(c2nc(OCCN3CCC(F)(F)C3)nc3c2CCN(c2cc(O)cc4ccccc24)C3)CC1 [Example 139, 1-[4-[2-[2-(3,3-difluoropyrrolidin-1-yl)ethoxy]-7-(3-hydroxy-1-naphthyl)-6,8-dihydro-5H-pyrido[3,4-d]pyrimidin-4-yl]piperazin-1-yl]prop-2-en-1-one]
8 | < 6.00 | C=CC(=O)N1CCN(c2nc(OCC3CCN(C)C3)nc3c2CCN(c2c(C)ccc4[nH]ncc24)C3)CC1 (stereo not shown) [Example 161, 1-[4-[7-(5-methyl-1H-indazol-4-yl)-2-[(1-methylpyrrolidin-3-yl)methoxy]-6,8-dihydro-5H-pyrido[3,4-d]pyrimidin-4-yl]piperazin-1-yl]prop-2-en-1-one]
9 | 6.00 to 10.00 | C=CC(=O)N1CCN(c2nc(OC[C@@H]3CCCN3C)nc3c2CCN(c2ccccc2OC(F)(F)F)C3)CC1CC#N (stereo partly drawn) [Example 211, 2-(1-acryloyl-4-(2-(((S)-1-methylpyrrolidin-2-yl)methoxy)-7-(2-(trifluoromethoxy)phenyl)-5,6,7,8-tetrahydropyrido[3,4-d]pyrimidin-4-yl)piperazin-2-yl)acetonitrile]
10 | < 6.00 | C=CC(=O)N1CCN(c2ncnc3c2CCN(c2cc(O)cc4ccccc24)C3)CC1 [Example 1, 1-(4-(7-(3-hydroxynaphthalen-1-yl)-5,6,7,8-tetrahydropyrido[3,4-d]pyrimidin-4-yl)piperazin-1-yl)prop-2-en-1-one]
11 | < 6.00 | C=C(F)C(=O)N1CCN(c2nc(OC[C@@H]3[C@H](O)CC(=O)N3C)nc3c2CCN(c2cccc4cccc(C)c24)C3)C[C@@H]1CC#N [Example 570, 2-[(2S)-1-(2-Fluoroprop-2-enoyl)-4-[2-[[(2R,3R)-3-hydroxy-1-methyl-5-oxo-pyrrolidin-2-yl]methoxy]-7-(8-methyl-1-naphthyl)-6,8-dihydro-5H-pyrido[3,4-d]pyrimidin-4-yl]piperazin-2-yl]acetonitrile]
12 | < 6.00 | C=CC(=O)N1CCN(c2nc(O[C@H](C)CN(C)C)nc3c2CCN(c2cc(O)c(Cl)c4ccccc24)C3)CC1 [Example 125, (R)-1-(4-(7-(4-chloro-3-hydroxynaphthalen-1-yl)-2-((1-(dimethylamino)propan-2-yl)oxy)-5,6,7,8-tetrahydropyrido[3,4-d]pyrimidin-4-yl)piperazin-1-yl)prop-2-en-1-one]
13 | 6.00 to 10.00 | C=CC(=O)N1CCN(c2nc(OCC3CCN(CCOC)C3)nc3c2CCN(c2cc(O)cc4ccccc24)C3)CC1 (stereo not shown) [Example 103, 1-(4-(7-(3-hydroxynaphthalen-1-yl)-2-((1-(2-methoxyethyl)pyrrolidin-3-yl)methoxy)-5,6,7,8-tetrahydropyrido[3,4-d]pyrimidin-4-yl)piperazin-1-yl)prop-2-en-1-one]
14 | < 6.00 | C=CC(=O)N1CC2(C1)CN(c1nc(OCCCN(C)C)nc3c1CCN(c1cc(O)cc4ccccc14)C3)C2 [Example 20, 1-(6-(2-(3-(dimethylamino)propoxy)-7-(3-hydroxynaphthalen-1-yl)-5,6,7,8-tetrahydropyrido[3,4-d]pyrimidin-4-yl)-2,6-diazaspiro[3.3]heptan-2-yl)prop-2-en-1-one]
15 | 6.00 to 10.00 | C=CC(=O)N1CCN(c2nc(OC[C@@H]3CCCN3C)nc3c2CCN(c2cccc(F)c2C)C3)CC1CC#N (stereo partly drawn) [Example 411, 2-(1-acryloyl-4-(7-(3-fluoro-2-methylphenyl)-2-(((S)-1-methylpyrrolidin-2-yl)methoxy)-5,6,7,8-tetrahydropyrido[3,4-d]pyrimidin-4-yl)piperazin-2-yl)acetonitrile]
16 | < 6.00 | C=C(F)C(=O)N1CCN(c2nc(OC[C@@H]3[C@H](O)CC(=O)N3C)nc3c2CCN(c2cccc4cccc(Cl)c24)C3)C[C@@H]1CC#N [Example 573, 2-[(2S)-4-[7-(8-Chloro-1-naphthyl)-2-[[(2R,3R)-3-hydroxy-1-methyl-5-oxo-pyrrolidin-2-yl]methoxy]-6,8-dihydro-5H-pyrido[3,4-d]pyrimidin-4-yl]-1-(2-fluoroprop-2-enoyl)piperazin-2-yl]acetonitrile]
17 | < 6.00 | C=CC(=O)N1CCN(c2nc(OC[C@@H]3CCCN3C)nc3c2CCN(c2ccccc2CC(F)(F)F)C3)CC1CC#N (stereo partly drawn) [Example 240, 2-(1-acryloyl-4-(2-(((S)-1-methylpyrrolidin-2-yl)methoxy)-7-(2-(2,2,2-trifluoroethyl)phenyl)-5,6,7,8-tetrahydropyrido[3,4-d]pyrimidin-4-yl)piperazin-2-yl)acetonitrile]
18 | < 6.00 | C=CC(=O)N1CCN(c2nc(OCC(O)CO)nc3c2CCN(c2cc(O)cc4ccccc24)C3)CC1 (stereo not shown) [Example 143, 1-[4-[2-(2,3-dihydroxypropoxy)-7-(3-hydroxy-1-naphthyl)-6,8-dihydro-5H-pyrido[3,4-d]pyrimidin-4-yl]piperazin-1-yl]prop-2-en-1-one]
19 | 6.00 to 10.00 | CN1CCC[C@H]1COc1nc2c(c(N3CCN(C(=O)/C=C/CN4CCCC4)[C@@H](CC#N)C3)n1)CCN(c1cccc(Cl)c1C(F)(F)F)C2 [Example 347, 2-[(2S)-4-[7-[3-chloro-2-(trifluoromethyl)phenyl]-2-[[(2S)-1-methylpyrrolidin-2-yl]methoxy]-6,8-dihydro-5H-pyrido[3,4-d]pyrimidin-4-yl]-1-[(E)-4-pyrrolidin-1-ylbut-2-enoyl]piperazin-2-yl]acetonitrile]
20 | 6.00 to 10.00 | C=CC(=O)N1CCN(c2nc(OC[C@H]3CCCN3CCO)nc3c2CCN(c2cccc4ccccc24)C3)C[C@@H]1CC#N [Example 329, 2-[(2S)-4-[2-[[(2R)-1-(2-hydroxyethyl)pyrrolidin-2-yl]methoxy]-7-(1-naphthyl)-6,8-dihydro-5H-pyrido[3,4-d]pyrimidin-4-yl]-1-prop-2-enoyl-piperazin-2-yl]acetonitrile]
21 | < 6.00 | C=CC(=O)N1CCN(c2nc(OCCN(C)C)nc3c2CCN(c2cc(O)cc4ccccc24)C3)CC1C(=O)N(C)C (stereo not shown) [Example 51, 1-acryloyl-4-(2-(2-(dimethylamino)ethoxy)-7-(3-hydroxynaphthalen-1-yl)-5,6,7,8-tetrahydropyrido[3,4-d]pyrimidin-4-yl)-N,N-dimethylpiperazine-2-carboxamide]
22 | 6.00 to 10.00 | C=C(C(=O)N1CCN(c2nc(OC[C@@H]3CCCN3C)nc3c2CCN(c2cccc4cccc(C)c24)C3)C[C@@H]1CC#N)C(F)(F)F [Example 492, 2-((S)-4-(7-(8-methylnaphthalen-1-yl)-2-(((S)-1-methylpyrrolidin-2-yl)methoxy)-5,6,7,8-tetrahydropyrido[3,4-d]pyrimidin-4-yl)-1-(2-(trifluoromethyl)acryloyl)piperazin-2-yl)acetonitrile]
23 | 6.00 to 10.00 | C=C(F)C(=O)N1CCN(c2nc(OC[C@@H]3CCCN3C)nc3c2CCN(c2c(C(F)(F)F)c(C)cc4[nH]ncc24)C3)C[C@@H]1CC#N [Example 527]
24 | 6.00 to 10.00 | C=CC(=O)N1CCN(c2nc(OCCCN3C[C@@H]4C[C@H]3CO4)nc3c2CCN(c2cc(O)cc4ccccc24)C3)CC1CC#N (stereo partly drawn) [Example 153, 2-[4-[7-(3-hydroxy-1-naphthyl)-2-[3-[(1S,4S)-2-oxa-5-azabicyclo[2.2.1]heptan-5-yl]propoxy]-6,8-dihydro-5H-pyrido[3,4-d]pyrimidin-4-yl]-1-prop-2-enoyl-piperazin-2-yl]acetonitrile]

Row | Compound | pIC50
25 | C=CC(=O)N1CCN(c2nc(OC[C@H]3CCCN3C)nc3c2CCN(c2cccc4ccccc24)C3)C[C@@H]1CC#N [Example 441, 2-((S)-1-acryloyl-4-(2-(((R)-1-methylpyrrolidin-2-yl)methoxy)-7-(naphthalen-1-yl)-5,6,7,8-tetrahydropyrido[3,4-d]pyrimidin-4-yl)piperazin-2-yl)acetonitrile] | 6.00 to 10.00
